Reference: US20020019412A1, “MODULATORS OF PROTEIN TYROSINE PHOSPHATASES (PTPASES)” (priority 1998, published 2002)
Structures can show the parent of a compound that is named as a salt.

Tests used:
PTP1B = target: T1, PTP1B (Homo sapiens, UniProt P18031); assay: Inhibition of truncated PTP1B, p-nitrophenyl phosphate substrate; type: biochemical; conditions: truncated PTP1B (first 321 amino acids) expressed in E. coli; pNPP substrate; pH 5.5; 25° C., 60 minutes
T1 construct: a truncated form of PTP1B (corresponding to the first 321 amino acids); made in house; host or cells: E. coli
T1 sequence (P18031 1-321): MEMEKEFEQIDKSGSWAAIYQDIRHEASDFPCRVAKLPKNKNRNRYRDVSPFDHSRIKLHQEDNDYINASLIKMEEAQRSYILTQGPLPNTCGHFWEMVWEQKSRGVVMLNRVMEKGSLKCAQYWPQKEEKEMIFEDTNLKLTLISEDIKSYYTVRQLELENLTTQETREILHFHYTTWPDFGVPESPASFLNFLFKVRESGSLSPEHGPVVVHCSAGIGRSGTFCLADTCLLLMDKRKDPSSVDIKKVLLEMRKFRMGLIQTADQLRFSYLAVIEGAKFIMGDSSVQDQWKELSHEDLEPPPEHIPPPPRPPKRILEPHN
Method: The compounds are evaluated for biological activity with a truncated form of PTP1B (corresponding to the first 321 amino acids), which is expressed in E. coli and purified to apparent homogeneity using published procedures well-known to those skilled in the art. The enzyme reactions are carried out using standard conditions essentially as described by Burke et al. (Biochemistry 35; 15989-15996 (1996)). The assay conditions are as follows. Appropriate concentrations of the compounds of the invention are added to the reaction mixtures containing different concentrations of the substrate, p-nitrophenyl phosphate (range: 0.16 to 10 mM—final assay concentration). The buffer used is 100 mM sodium acetate pH 5.5, 50 mM sodium chloride, 0.1% (w/v) bovine serum albumin and 5 mM dithiothreitol (total volume […]). The reaction is started by addition of the enzyme and carried out in microtiter plates at 25° C. for 60 minutes. The reactions are stopped by addition of NaOH. The enzyme activity is determined by measurement of the absorbance at 405 nm with appropriate corrections for absorbance at 405 nm of the compounds and p-nitrophenyl phosphate. The data are analyzed using nonlinear regression fit to classical Michaelis Menten enzyme kinetic models. Inhibition is expressed as Ki values in μM.

SMILES	Ki (PTP1B) [µM]	melting point [°C]
O=C(O)C(=O)Nc1c(C(=O)O)sc2ncccc12 [Example 1, 3-(Oxalyl-amino)-thieno[2,3-b]pyridine-2-carboxylic acid, mono sodium salt]	330	
O=C(O)C(=O)Nc1c(C(=O)O)sc2ncccc12 (as salt: sodium) [Example 1, 3-(Oxalyl-amino)-thieno[2,3-b]pyridine-2-carboxylic acid, mono sodium salt]		> 250
